Values quoted from earlier work in publication PMC7926471 (Viruses, 2021).

Tested on: SARS-CoV-2
Details: pre and post treatment of Vero E6 cultures; cited from earlier work

CCN(CC)CCCC(C)Nc1ccnc2cc(Cl)ccc12 (centres unmarked) [Chloroquine, chloroquine diphosphate]
EC50: 1130 nM
EC90: 6.9 µM
